Values of other authors as cited in patent US12691078B2, “Stable compositions of functional ingredients and methods of making the same” (Nulixir Inc., priority 2021, dated 2026).

conditions: reference solvents n-octanol and water; pH=7 unless stated otherwise; mostly given as approximate (~=)

| Compound | logP |
| --- | --- |
| N#C[C@@]1(O[C@@H]2O[C@H](CO)[C@@H](O)[C@H](O)[C@H]2O)C=C[C@@H](O)C1 [tetraphyllin B] | ~−2.5 |
| hericerin | ~6.4 |
| COc1cc(/C=C/c2ccccc2)oc(=O)c1 [5,6-dehydrokawain] | ~2.9 |
| schisandroside C | ~1.6 |
| COc1ccc(CCc2cc(OC)cc(=O)o2)cc1 [7,8-dihydroyangonin] | ~2.9 |
| CC(C)=C[C@@H]1CO[C@]23C[C@]4(CO2)[C@H](CC[C@@H]2[C@@]5(C)CC[C@H](O[C@@H]6OC[C@H](O)[C@H](O[C@@H]7O[C@H](CO)[C@@H](O)[C@H](O)[C@H]7O)[C@H]6O[C@@H]6O[C@@H](CO)[C@H](O)[C@H]6O)C(C)(C)[C@@H]5CC[C@]24C)[C@H]3[C@@]1(C)O [bacopasaponin C] | ~2 |
| herinacine A | ~2.5 |
| COc1ccc([C@@]23CCC(=O)C[C@@H]2N(C)CC3)cc1OC [mesembrine] | ~1.5 |
| COc1cc2c(c(OC)c1OC)-c1c(cc(OC)c(OC)c1OC)C[C@](C)(O)[C@@H](C)C2 [(+)-schisandrin] | ~5 |
| CC(C)=CCC[C@](C)(O[C@@H]1O[C@H](CO[C@@H]2O[C@H](CO)[C@@H](O)[C@H](O)[C@H]2O)[C@@H](O)[C@H](O)[C@H]1O)[C@H]1CC[C@]2(C)[C@@H]1[C@H](O)C[C@@H]1[C@@]3(C)CC[C@H](O[C@@H]4O[C@H](CO)[C@@H](O)[C@H](O)[C@H]4O[C@@H]4O[C@H](CO)[C@@H](O)[C@H](O)[C@H]4O)C(C)(C)[C@@H]3CC[C@]12C [ginsenoside rb1] | ~−1 |
| bacopaside B | ~2.8 |
| COc1cc(/C=C\c2ccc(OC)c(O)c2)oc(=O)c1 [11-hydroxyyangonin] | ~2.2 |
| (R)-kawain | ~2.7 |
| COc1ccc(C23C=CC(O)CC2N(C)CC3)cc1OC (stereo not drawn) [mesembrenol] | ~2.4 |
| CC(C)=C[C@H]1C[C@](C)(O)[C@H]2[C@H]3CC[C@@H]4[C@@]5(C)CC[C@H](O[C@@H]6O[C@H](CO)[C@@H](O)[C@H](O[C@@H]7O[C@H](CO)[C@@H](O)[C@H](O)[C@H]7O)[C@H]6O[C@@H]6O[C@@H](CO)[C@H](O)[C@H]6O)C(C)(C)[C@@H]5CC[C@@]4(C)[C@@]34CO[C@@]2(C4)O1 [bacoside A3] | ~2.1 |
| tortuosomine | ~3 |
| COC1=CC(=O)O[C@@H](CCc2ccc3c(c2)OCO3)C1 [7,8-dihydromethysticin] | ~2.2 |
| COc1ccc([C@@]23C=CC(=O)C[C@@H]2N(C)CC3)cc1OC [mesembrenone] | ~1.3 |
| COc1c2c(cc3c1-c1c(cc4c(c1OC)OCO4)C[C@H](C)[C@H](C)C3)OCO2 [(−)-schisandrin C] | ~3.5 |
| COc1nc2c(c(=O)n1C)n(C)c(=O)n2C [methylliberine] | ~−0.083 |
| COC1=CC(=O)OC(/C=C/c2ccc(OC)cc2)C1 (stereo not drawn) [5,6-dihydroyangonin] | ~2.5 |
| CC(C)=CCC[C@](C)(O[C@@H]1O[C@H](CO)[C@@H](O)[C@H](O)[C@H]1O)[C@H]1CC[C@]2(C)[C@@H]1[C@H](O)C[C@@H]1[C@@]3(C)CC[C@H](O)C(C)(C)[C@@H]3[C@@H](O[C@@H]3O[C@H](CO)[C@@H](O)[C@H](O)[C@H]3O)C[C@]12C [ginsenoside rg1] | ~0.8 |
| CC(C)=C[C@H]1C[C@](C)(O)[C@@H]2[C@H]3CC[C@@H]4[C@@]5(C)CC[C@H](O[C@@H]6OC[C@H](O)[C@H](O[C@@H]7O[C@H](CO)[C@@H](O)[C@H](O)[C@H]7O)[C@H]6O[C@@H]6O[C@@H](CO)[C@H](O)[C@H]6O)C(C)(C)[C@@H]5CC[C@@]4(C)[C@@]34CO[C@@]2(C4)O1 [bacopaside X] | ~2.2 |
| COc1cc2c(c(OC)c1OC)-c1c(cc(OC)c(OC)c1OC)C[C@H](C)[C@H](C)C2 [(−)-schisandrin A] | ~3.6 |
| COc1cc([C@H]2Oc3cc(O)c4c(=O)c(O)c(-c5ccc(O)cc5)oc4c3O[C@@H]2CO)ccc1O [rhodiolin] | ~2 |
| CC1=C(CO)C(=O)O[C@@H]([C@@H](C)[C@H]2CC[C@H]3[C@@H]4C[C@H](Cl)[C@]5(O)[C@@H](O)C=CC(=O)[C@]5(C)[C@H]4CC[C@]23C)C1 [6a-chloro-5b-hydroxywithaferin A] | ~3.2 |
| COc1cc2c(c(OC)c1OC)-c1c(cc(OC)c(OC)c1OC)C[C@](C)(O)[C@@H](C)C2 [schisandrol A] | ~3.4 |
| CC(=O)OC1C=CC(=O)N(C(=O)CCc2ccccc2)C1 (stereo not drawn) [pipermethystine] | ~1.8 |
| COc1cc2c(c(OC)c1OC)-c1c(cc3c(c1OC)OCO3)CC(C)C(C)C2 (single isomer, unassigned; (-)) [(−)-schisandrin B] | ~4 |

conditions: ethanol extraction of Golden Seal

| Compound | solubility in ethanol as a function of water content |
| --- | --- |
| COc1ccc2cc3[n+](cc2c1OC)CCc1cc2c(cc1-3)OCO2 [berberine] | decreases rapidly with water content |
